Results as given in patent US20190076452A1, “THERAPEUTIC COMBINATIONS FOR TREATING NEOPLASIA” (MEDIMMUNE LIMITED, priority 2014, published 2019).

Key:
CT26 tumors [1] = assay: Established CT26 tumors in T cell-deficient athymic nude mice; type: in vivo; conditions: maximally tolerated doses, tumors approximately 200 mm^3, immunodeficient mice
Procedure: FIG. 4A is a graph showing tumor volume in CT26 tumor-bearing athymic nude mice dosed with Doxil (5 mg/kg) or Doxorubicin (5 mg/kg) as indicated. FIG. 4B is a graph showing tumor volume in CT26 tumor-bearing Balb/C mice dosed with Doxil (5 mg/kg) or Doxorubicin (5 mg/kg) as indicated. FIG. 4C is a graph showing tumor volume in CT26 tumor-bearing athymic nude mice dosed with gemcitabine (75 mg/kg) as indicated. FIG. 4D is a graph showing tumor volume in CT26 tumor-bearing Balb/C mice dosed with gemcitabine (75 mg/kg) as indicated. FIG. 4E is a graph showing tumor volume in CT26 tumor-bearing athymic nude mice dosed with oxiplatin (8 mg/kg) as indicated. […]
(§1) A CT26 model was used in several studies. […] The number of animals per group ranged from between 10-12 animals per group as determined based on sample size calculations using nQuery software. Both tumor and body weight measurements were collected twice weekly and tumor volume calculated using the equation (L×W^2)/2, where L and W refers to the length and width dimensions, respectively. Error bars were calculated as standard error of the mean. The general health of mice was monitored daily and all experiments were conducted in accordance to AAALAC and MedImmune IACUC guidelines for humane treatment and care of laboratory animals.

CT26 tumors [2] = assay: Established CT26 tumors in immunocompetent Balb/C mice; type: in vivo; conditions: maximally tolerated doses, tumors approximately 200 mm^3, immunocompetent mice
Procedure: FIG. 4A is a graph showing tumor volume in CT26 tumor-bearing athymic nude mice dosed with Doxil (5 mg/kg) or Doxorubicin (5 mg/kg) as indicated. FIG. 4B is a graph showing tumor volume in CT26 tumor-bearing Balb/C mice dosed with Doxil (5 mg/kg) or Doxorubicin (5 mg/kg) as indicated. FIG. 4C is a graph showing tumor volume in CT26 tumor-bearing athymic nude mice dosed with gemcitabine (75 mg/kg) as indicated. FIG. 4D is a graph showing tumor volume in CT26 tumor-bearing Balb/C mice dosed with gemcitabine (75 mg/kg) as indicated. FIG. 4E is a graph showing tumor volume in CT26 tumor-bearing athymic nude mice dosed with oxiplatin (8 mg/kg) as indicated. FIG. 4F is a graph showing tumor volume in CT26 tumor-bearing Balb/C mice dosed with oxiplatin (8 mg/kg) as indicated. Arrows indicate dose administration.
A CT26 model was used in several studies. CT26 cells are murine colon cancer cells. CT26 cells were obtained from the ATCC (Manassas, Va.), and were grown with RPMI supplemented with 10% fetal bovine serum. Following receipt, cell lines were re-authenticated using STR-based DNA profiling and multiplex PCR (IDEXX Bioresearch, Columbia, Mo.). Cells were grown in monolayer culture, harvested by trypsinizatin, and implanted subcutaneously into the right flank of 6-8 week old female Balb/C (CT26), C57/Bl6 (MCA205), or 4-6 week athymic female nude mice (Harlan, Indianapolis, Ind.). For the CT26 tumor model, 5×10^5 cells were implanted in the right flank using a 26-gauge needle. […] The number of animals per group ranged from between 10-12 animals per group as determined based on sample size calculations using nQuery software. Both tumor and body weight measurements were collected twice weekly and tumor volume calculated using the equation (L×W^2)/2, where L and W refers to the length and width dimensions, respectively. Error bars were calculated as standard error of the mean. The general health of mice was monitored daily and all experiments were conducted in accordance to AAALAC and MedImmune IACUC guidelines for humane treatment and care of laboratory animals.

CT26 cells = assay: CT26 tumor model, preventative treatment before measurable tumor; type: in vivo, Balb/C mice
Procedure: A CT26 model was used in several studies. CT26 cells are murine colon cancer cells. CT26 cells were obtained from the ATCC (Manassas, Va.), and were grown with RPMI supplemented with 10% fetal bovine serum. Following receipt, cell lines were re-authenticated using STR-based DNA profiling and multiplex PCR (IDEXX Bioresearch, Columbia, Mo.). Cells were grown in monolayer culture, harvested by trypsinizatin, and implanted subcutaneously into the right flank of 6-8 week old female Balb/C (CT26), C57/Bl6 (MCA205), or 4-6 week athymic female nude mice (Harlan, Indianapolis, Ind.). For the CT26 tumor model, 5×10^5 cells were implanted in the right flank using a 26-gauge needle. Antibodies were obtained from Anti-PD-1 (RMP1-14), anti-PD-L1 (10F.9G2), anti-CTLA-4 (9D9), and mouse IgG2b control (MPC-11). Mouse OX40 fusion protein (OX40 FP) and Rat IgG2a isotype control antibodies were produced by MedImmune (Gaithersburg, Md.). All antibodies and OX40 FP were dosed via intraperitoneal injection. Doxil (Bluedoor Pharma, Rockville, Md.) and doxorubicin (Henry Schein, Melville, N.Y.) were dosed via intravenous administration. In some studies, isotype controls were administered to mice as a cocktail of rat IgG2a and mouse IgG2b. At the beginning of treatment, mice were either randomized by tumor volume (established-tumor studies) or by body weight (preventative studies). The number of animals per group ranged from between 10-12 animals per group as determined based on sample size calculations using nQuery software. Both tumor and body weight measurements were collected twice weekly and tumor volume calculated using the equation (L×W^2)/2, where L and W refers to the length and width dimensions, respectively. Error bars were calculated as standard error of the mean. The general health of mice was monitored daily and all experiments were conducted in accordance to AAALAC and MedImmune IACUC guidelines for humane treatment and care of laboratory animals.

xenograft model = conditions: T-cell dependent mechanism; cited from earlier work
CT26 tumors [3] = assay: Established CT26 tumor model, Doxil combined with immunotherapies; type: in vivo, Balb/C mice; conditions: maximally efficacious doses
Text: FIGS. 5A-5L show synergistic anti-tumor responses of Doxil in combination with multiple immunotherapies in an established CT26 tumor model. FIG. 5A is a graph depicting tumor volume in untreated mice. FIG. 5B is a graph depicting tumor volume in mice administered Doxil. FIG. 5C is a graph depicting tumor volume in mice administered OX40L fusion protein (FP). FIG. 5D is a graph depicting tumor volume in mice administered α-PD-1. FIG. 5E is a graph depicting tumor volume in mice administered α-PD-L1. FIG. 5F is a graph depicting tumor volume in mice administered α-CTLA-4. FIG. 5G is a graph depicting tumor volume in mice administered GITR ligand fusion protein (GITRL FP). FIG. 5H is a graph depicting tumor volume in mice administered Doxil+OX40L FP. […]
as §1, with “animals. […]” for “animals.”

MCA205 tumors = assay: Established MCA205 syngeneic tumor model; type: in vivo, C57/Bl6 mice; conditions: maximally efficacious doses
Text: FIGS. 7A-7L show synergistic anti-tumor responses of Doxil in combination with α-PD-1, α-PD-L1 and α-CTLA-4 antibodies in the MCA205 syngeneic model. FIG. 7A is a graph depicting tumor volume in untreated mice. FIG. 7B is a graph depicting tumor volume in mice administered Doxil. FIG. 7C is a graph depicting tumor volume in mice administered OX40L fusion protein (FP). FIG. 7D is a graph depicting tumor volume in mice administered α-PD-1. FIG. 7E is a graph depicting tumor volume in mice administered α-PD-L1. FIG. 7F is a graph depicting tumor volume in mice administered α-CTLA-4. FIG. 7G is a graph depicting tumor volume in mice administered GITR ligand fusion protein (GITRL FP). […]
As CT26 is highly sensitive to immunotherapies, it was determined whether Doxil could enhance the activity of immunotherapies in a less sensitive model, MCA205. […]
MCA205 cells were obtained from Agonox (Portland, Oreg.) and grown in RPMI supplemented with 10% fetal bovine serum. […] The number of animals per group ranged from between 10-12 animals per group as determined based on sample size calculations using nQuery software. Both tumor and body weight measurements were collected twice weekly and tumor volume calculated using the equation (L×W^2)/2, where L and W refers to the length and width dimensions, respectively. Error bars were calculated as standard error of the mean. […]

Q: With `Nc1ccn([C@@H]2O[C@H](CO)[C@@H](O)C2(F)F)c(=O)n1` [gemcitabine] as the molecule, how does the anti-tumor activity (CT26 tumors [1]) read?
A: significant anti-tumor activity

Q: And the anti-tumor activity (CT26 tumors [2])?
A: significant anti-tumor activity

Q: Which results are given for `COc1cccc2c1C(=O)c1c(O)c3c(c(O)c1C2=O)C[C@@](O)(C(=O)CO)C[C@@H]3O[C@H]1C[C@H](N)[C@H](O)[C@H](C)O1` [Doxorubicin, doxorubicin]?
A: anti-tumor activity (CT26 tumors [1]): did not elicit anti-tumor activity; anti-tumor activity (CT26 tumors [2]): did not elicit anti-tumor activity; No. of CRs (CT26 cells; 1 mg/kg): 0/10; No. of CRs (CT26 cells; 4 mg/kg): 2/10; number of complete responders (CT26 cells; doxorubicin 4 mg/kg alone or combined with antibody): 2 animals

Q: For `O=C1[O][Pt]2([NH][C@@H]3CCCC[C@H]3[NH]2)[O]C1=O` [Oxaliplatin], which anti-tumor activity (CT26 tumors [2]) is on record?
A: increased antitumor activity

B1: MEDI4736: human monoclonal antibody directed against human PD-L1 (antibody, V domains shown)
VH: EVQLVESGGGLVQPGGSLRLSCAASGFTFSRYWMSWVRQAPGKGLEWVANIKQDGSEKYYVDSVKGRFTISRDNAKNSLYLQMNSLRAEDTAVYYCAREGGWFGELAFDYWGQGTLVTVSS
VL: EIVLTQSPGTLSLSPGERATLSCRASQRVSSSYLAWYQQKPGQAPRLLIYDASSRATGIPDRFSGSGSGTDFTLTISRLEPEDFAVYYCQQYGSLPWTFGQGTKVEIK
Q: For B1, which tumor growth (xenograft model) is on record?
A: inhibits tumor growth

B2: OX40 FP: mouse OX40 fusion protein produced by MedImmune (protein)
chain: SSSPAKDPPIQRLRGAVTRCEDGQLFISSYKNEYQTMEVQNNSVVIKCDGLYIIYLKGSFFQEVKIDLHFREDHNPISIPMLNDGRRIVFTVVASLAFKDKVYLTVNAPDTLCEHLQINDGELIVVQLTPGYCAPEGSYHSTVNQVPL
modifications: left off: a dimerising Fc or GST
notes: mouse OX40 fusion protein produced by MedImmune
Q: For B2, which anti-tumor activity (CT26 tumors [3]; tumors 200-300 mm^3) is on record?
A: low to moderate activity

Q: What about the complete responders (CT26 tumors [3]; tumors 200-300 mm^3, out of 12 mice) of the same molecule?
A: a few

Q: What about the anti-tumor activity (MCA205 tumors; tumors 100-150 mm^3) of the same molecule?
A: minimally active

Q: What about the complete response (MCA205 tumors; tumors 100-150 mm^3, out of 12 mice) of the same molecule?
A: one
